Test results as given in patent publication US5534508A, “Cephem compounds and antimicrobial agents” (Katayama Seiyakusyo Co., Ltd., priority 1993, dated 1996).
In brackets after ≈: the same amount, converted by molar mass.

Experiments:
Type in all cases: cell-based
A. calcoaceticos T59 = assay: MIC against standard strains (Table 1), A. calcoaceticos T59; conditions: Muller-Hinton agar, overnight 37° C., read-out: MIC (minimum growth inhibitory concentration)
Procedure: (§1) The minimum growth inhibitory concentration (MIC, μg/ml) of the compounds for each of the 25 standard laboratory strains (standard strains) shown in Table 1 was determined in accordance with the standard method of the Japan Chemotherapical Society (Chemotherapy, 29, 76-79 (1981) under "Re-revision of the measuring methods of minimum growth inhibitory concentration (MIC)").
(§2) That is, by using each test strain cultured overnight at 37° C. in a Muller-Hinton broth, there was prepared a bacterial solution with a cell density of 1×10^6 CFU/ml in the same broth. The bacterial solution was inoculated into the Muller-Hinton agar media each containing respectively one test agent (i.e., compound) and, after overnight incubation at 37° C., the minimum concentration that inhibited growth of the bacteria was determined and expressed as MIC.
(§3) Staphylococcus aureus 167 and Staphylococcus aureus 195 used in the test were MRSA. CTM (cefotiam) and FMOX (flomoxef) were used as the control agents.

E. coli CSH2(RK1) = assay: MIC against standard strains (Table 1), E. coli CSH2(RK1); conditions: Escherichia coli, read-out: MIC (minimum growth inhibitory concentration)
Procedure: as §1, §2, §3

E. coli JC-2 = assay: MIC against standard strains (Table 1), E. coli JC-2; conditions: Escherichia coli, JC2, Muller-Hinton agar, overnight 37° C., read-out: MIC (minimum growth inhibitory concentration)
Procedure: as §1, §2, §3

B. subtilis ATCC 6633 = assay: MIC against standard strains (Table 1), B. subtilis ATCC 6633; conditions: Bacillus subtilis, ATCC6633, Muller-Hinton agar, overnight 37° C., read-out: MIC (minimum growth inhibitory concentration)
Procedure: as §1, §2, §3

M. luteus ATCC 9341 = assay: MIC against standard strains (Table 1), M. luteus ATCC 9341; conditions: Micrococcus luteus, ATCC9341, Muller-Hinton agar, overnight 37° C., read-out: MIC (minimum growth inhibitory concentration)
Procedure: as §1, §2, §3

E. cloacae ATCC 13407 = assay: MIC against standard strains (Table 1), E. cloacae ATCC 13407; conditions: Enterobacter cloacae, ATCC13407, Muller-Hinton agar, overnight 37° C., read-out: MIC (minimum growth inhibitory concentration)
Procedure: as §1, §2, §3

S. marcescens IAM 1184 = assay: MIC against standard strains (Table 1), S. marcescens IAM 1184; conditions: Serratia marcescens, IAM1184, Muller-Hinton agar, overnight 37° C., read-out: MIC (minimum growth inhibitory concentration)
Procedure: as §1, §2, §3

S. aureus 209p JC-1 = assay: MIC against standard strains (Table 1), S. aureus 209p JC-1; conditions: Staphylococcus aureus, Muller-Hinton agar, overnight 37° C., read-out: MIC (minimum growth inhibitory concentration)
Procedure: as §1, §2, §3

C. freundii ATCC 8090 = assay: MIC against standard strains (Table 1), C. freundii ATCC 8090; conditions: Citrobacter freundii, ATCC8090, Muller-Hinton agar, overnight 37° C., read-out: MIC (minimum growth inhibitory concentration)
Procedure: as §1, §2, §3

S. epidemidis IAM 1296 = assay: MIC against standard strains (Table 1), S. epidemidis IAM 1296; conditions: Muller-Hinton agar, overnight 37° C., read-out: MIC (minimum growth inhibitory concentration)
Procedure: as §1, §2, §3

S. aureus 195 = assay: MIC against standard strains (Table 1), S. aureus 195 (MRSA); conditions: Staphylococcus aureus, Muller-Hinton agar, overnight 37° C., read-out: MIC (minimum growth inhibitory concentration)
Procedure: as §1, §2, §3

P. mirabilis IFO 3849 = assay: MIC against standard strains (Table 1), P. mirabilis IFO 3849; conditions: Proteus mirabilis, IFO3849, Muller-Hinton agar, overnight 37° C., read-out: MIC (minimum growth inhibitory concentration)
Procedure: as §1, §2, §3

A. faecalis ATCC 3750 = assay: MIC against standard strains (Table 1), A. faecalis ATCC 3750; conditions: Alcaligenes faecalis, ATCC3750, Muller-Hinton agar, overnight 37° C., read-out: MIC (minimum growth inhibitory concentration)
Procedure: as §1, §2, §3

P. aeruginosa AKR17 = assay: MIC against standard strains (Table 1), P. aeruginosa AKR17; conditions: Pseudomonas aeruginosa, Muller-Hinton agar, overnight 37° C., read-out: MIC (minimum growth inhibitory concentration)
Procedure: as §1, §2, §3

E. coli CSH2(RE45) = assay: MIC against standard strains (Table 1), E. coli CSH2(RE45); conditions: Escherichia coli, read-out: MIC (minimum growth inhibitory concentration)
Procedure: as §1, §2, §3

K. pneuminiae IFO 3317 = assay: MIC against standard strains (Table 1), K. pneuminiae IFO 3317; conditions: Muller-Hinton agar, overnight 37° C., read-out: MIC (minimum growth inhibitory concentration)
Procedure: as §1, §2, §3

S. aureus Smith = assay: MIC against standard strains (Table 1), S. aureus Smith; conditions: Staphylococcus aureus, Muller-Hinton agar, overnight 37° C., read-out: MIC (minimum growth inhibitory concentration)
Procedure: as §1, §2, §3

clinically isolated MRSA = assay: Antibacterial potency against clinically isolated MRSA (47 strains); conditions: Staphylococcus aureus; for MIC50: concentration inhibiting growth of 50% of 47 clinically isolated MRSA strains; for MIC90: concentration inhibiting growth of 90% of 47 clinically isolated MRSA strains
Procedure: A test on the antibacterial potency against clinically isolated MRSA was conducted in the following way.
That is, using 47 strains of clinically isolated MRSA, MIC was determined for each of the test strains in accordance with the standard method of the Japan Chemotherapical Society as in Test Example 1, and the minimum growth inhibitory concentration which inhibited growth of 50% of the strains tested was expressed as MIC50 (μg/ml), and the minimum growth inhibitory concentration which inhibited growth of 90% of the strains tested was expressed as MIC90 (μg/ml).
In this test, FMOX was used as the control agent.

P. cepacia CN 9113 = assay: MIC against standard strains (Table 1), P. cepacia CN 9113; conditions: Burkholderia cepacia, CN9113, Muller-Hinton agar, overnight 37° C., read-out: MIC (minimum growth inhibitory concentration)
Procedure: as §1, §2, §3

S. aureus 167 = assay: MIC against standard strains (Table 1), S. aureus 167 (MRSA); conditions: Staphylococcus aureus, Muller-Hinton agar, overnight 37° C., read-out: MIC (minimum growth inhibitory concentration)
Procedure: as §1, §2, §3

K. pneuminiae No. 42 = assay: MIC against standard strains (Table 1), K. pneuminiae No. 42; conditions: Muller-Hinton agar, overnight 37° C., read-out: MIC (minimum growth inhibitory concentration)
Procedure: as §1, §2, §3

M. morganii IFO 3848 = assay: MIC against standard strains (Table 1), M. morganii IFO 3848; conditions: Morganella morganii, IFO3848, Muller-Hinton agar, overnight 37° C., read-out: MIC (minimum growth inhibitory concentration)
Procedure: as §1, §2, §3

E. cloacae Nek39 = assay: MIC against standard strains (Table 1), E. cloacae Nek39; conditions: Enterobacter cloacae, Muller-Hinton agar, overnight 37° C., read-out: MIC (minimum growth inhibitory concentration)
Procedure: as §1, §2, §3

P. aeruginosa NCTC 10490 = assay: MIC against standard strains (Table 1), P. aeruginosa NCTC 10490; conditions: Pseudomonas aeruginosa, NCTC10490, Muller-Hinton agar, overnight 37° C., read-out: MIC (minimum growth inhibitory concentration)
Procedure: as §1, §2, §3

P. vulugaris OX-19 = assay: MIC against standard strains (Table 1), P. vulugaris OX-19; conditions: Muller-Hinton agar, overnight 37° C., read-out: MIC (minimum growth inhibitory concentration)
Procedure: as §1, §2, §3

S. marcescens No. 16-2 = assay: MIC against standard strains (Table 1), S. marcescens No. 16-2; conditions: Serratia marcescens, NO.162, Muller-Hinton agar, overnight 37° C., read-out: MIC (minimum growth inhibitory concentration)
Procedure: as §1, §2, §3

Row | SMILES | MIC (A. calcoaceticos T59) | MIC (E. coli CSH2(RK1)) | MIC (E. coli JC-2) | MIC (B. subtilis ATCC 6633) | MIC (M. luteus ATCC 9341) | MIC (E. cloacae ATCC 13407) | MIC (S. marcescens IAM 1184) | MIC (S. aureus 209p JC-1) | MIC (C. freundii ATCC 8090) | MIC (S. epidemidis IAM 1296) | MIC (S. aureus 195) | MIC (P. mirabilis IFO 3849) | MIC (A. faecalis ATCC 3750) | MIC (P. aeruginosa AKR17) | MIC (E. coli CSH2(RE45)) | MIC (K. pneuminiae IFO 3317) | MIC (S. aureus Smith) | MIC (P. cepacia CN 9113) | MIC (S. aureus 167) | MIC (K. pneuminiae No. 42) | also measured
1 | NC(=O)c1cc[n+](C/C=C/C2=C(C(=O)[O-])N3C(=O)[C@@H](NC(=O)/C(=N\O)c4csc(N)n4)[C@H]3SC2)cc1 [Compound 19, 7β-[2-(2-aminothiazol-4-yl)-2-syn-hydroxyiminoacetamido]-3-[(E)-3-(4-carbamoylpyridinio)-1-propenyl]-3-cephem-4-carboxylate] | 3.13 µg/mL (≈ 5.91 µM) | 0.2 µg/mL (≈ 0.378 µM) | 0.1 µg/mL (≈ 0.189 µM) | 0.2 µg/mL (≈ 0.378 µM) | 0.05 µg/mL (≈ 0.0944 µM) | 0.39 µg/mL (≈ 0.736 µM) | 0.1 µg/mL (≈ 0.189 µM) | 0.1 µg/mL (≈ 0.189 µM) | 0.05 µg/mL (≈ 0.0944 µM) | 0.05 µg/mL (≈ 0.0944 µM) | 3.13 µg/mL (≈ 5.91 µM) | 0.2 µg/mL (≈ 0.378 µM) | 1.56 µg/mL (≈ 2.95 µM) | > 100 µg/mL | 0.1 µg/mL (≈ 0.189 µM) | 0.05 µg/mL (≈ 0.0944 µM) | 0.2 µg/mL (≈ 0.378 µM) | > 100 µg/mL | 100 µg/mL (≈ 189 µM) | 0.1 µg/mL (≈ 0.189 µM) | MIC50 (clinically isolated MRSA): 2.92 µg/mL (≈ 5.51 µM); MIC90 (clinically isolated MRSA): 17.4 µg/mL (≈ 32.8 µM); MIC (M. morganii IFO 3848): 0.05 µg/mL (≈ 0.0944 µM); MIC (E. cloacae Nek39): 12.5 µg/mL (≈ 23.6 µM); MIC (P. aeruginosa NCTC 10490): 1.56 µg/mL (≈ 2.95 µM); MIC (P. vulugaris OX-19): 0.1 µg/mL (≈ 0.189 µM); MIC (S. marcescens No. 16-2): 12.5 µg/mL (≈ 23.6 µM)
2 | NC(=O)Nc1ccc[n+](C/C=C/C2=C(C(=O)[O-])N3C(=O)[C@@H](NC(=O)/C(=N\O)c4csc(N)n4)[C@H]3SC2)c1 [Compound 13, 7β-[2-(2-aminothiazol-4-yl)-2-syn-hydroxyiminoacetamido]-3-[(E)-3-(3-ureidopyridinio) -1-propenyl]-3-cephem-4-carboxylate] | 3.13 µg/mL (≈ 5.75 µM) | 0.05 µg/mL (≈ 0.0918 µM) | 0.025 µg/mL (≈ 0.0459 µM) | 0.2 µg/mL (≈ 0.367 µM) | 0.05 µg/mL (≈ 0.0918 µM) | 0.1 µg/mL (≈ 0.184 µM) | 0.05 µg/mL (≈ 0.0918 µM) | 0.1 µg/mL (≈ 0.184 µM) | 0.025 µg/mL (≈ 0.0459 µM) | 0.025 µg/mL (≈ 0.0459 µM) | 1.56 µg/mL (≈ 2.86 µM) | 0.05 µg/mL (≈ 0.0918 µM) | 0.78 µg/mL (≈ 1.43 µM) | > 100 µg/mL | 0.05 µg/mL (≈ 0.0918 µM) | 0.025 µg/mL (≈ 0.0459 µM) | 0.2 µg/mL (≈ 0.367 µM) | > 100 µg/mL | 12.5 µg/mL (≈ 23 µM) | 0.05 µg/mL (≈ 0.0918 µM) | MIC50 (clinically isolated MRSA): 0.83 µg/mL (≈ 1.52 µM); MIC90 (clinically isolated MRSA): 5.08 µg/mL (≈ 9.33 µM); MIC (M. morganii IFO 3848): 0.025 µg/mL (≈ 0.0459 µM); MIC (E. cloacae Nek39): 6.25 µg/mL (≈ 11.5 µM); MIC (P. aeruginosa NCTC 10490): 1.56 µg/mL (≈ 2.86 µM); MIC (P. vulugaris OX-19): 0.05 µg/mL (≈ 0.0918 µM); MIC (S. marcescens No. 16-2): 6.25 µg/mL (≈ 11.5 µM)
3 | CN(C)CCn1nnnc1SCC1=C(C(=O)O)N2C(=O)[C@@H](NC(=O)Cc3csc(N)n3)[C@H]2SC1 [CTM, cefotiam, reference compound] | > 100 µg/mL | 0.2 µg/mL (≈ 0.38 µM) | 0.2 µg/mL (≈ 0.38 µM) | 0.39 µg/mL (≈ 0.742 µM) | 0.39 µg/mL (≈ 0.742 µM) | > 100 µg/mL | 3.13 µg/mL (≈ 5.95 µM) | 0.78 µg/mL (≈ 1.48 µM) | 0.78 µg/mL (≈ 1.48 µM) | 0.39 µg/mL (≈ 0.742 µM) | > 100 µg/mL | 0.39 µg/mL (≈ 0.742 µM) | 3.13 µg/mL (≈ 5.95 µM) | > 100 µg/mL | 0.39 µg/mL (≈ 0.742 µM) | 0.2 µg/mL (≈ 0.38 µM) | 0.78 µg/mL (≈ 1.48 µM) | > 100 µg/mL | > 100 µg/mL | 0.39 µg/mL (≈ 0.742 µM) | MIC (M. morganii IFO 3848): 0.2 µg/mL (≈ 0.38 µM); MIC (E. cloacae Nek39): > 100 µg/mL; MIC (P. aeruginosa NCTC 10490): 100 µg/mL (≈ 190 µM); MIC (P. vulugaris OX-19): 0.39 µg/mL (≈ 0.742 µM); MIC (S. marcescens No. 16-2): > 100 µg/mL
